Data taken from patent publication US10052281B2, “Local administration-type pharmaceutical for improving dysphagia” (MEIJI SEIKA PHARMA CO., LTD., priority 2011, dated 2018).
Entries after “also recorded” stand apart in the source; their conditions may differ.

Tests used:
normal guinea pig = test: Swallowing reflex in normal guinea pig after local pharyngeal administration of substance P receptor antagonist; type: in vivo
Protocol: (§1) To 6 week-old female Hartley guinea pigs (330 to 390 g) habituated for 1 week after receipt, a physiological saline solution, or a haloperidol solution was injected subcutaneously in a dosage of 1 mg/kg approx. every 12 hours twice per day for 7 days. Thereafter, a guinea pig was fixed at extremities, and 500 μL of distilled water was injected over 5 sec through a device to a part just before the pharynx, and the total frequency of swallowing until 10 sec and 30 sec from the injection was measured based on a muscle movement in a pharyngeal site. Thereafter a physiological saline solution, or a haloperidol solution was injected again (1 mg/kg).
FK888 (10 μM, 50 μL/guinea pig), which is a substance P receptor antagonist, was administered locally with a spray device to a pharyngeal site of a guinea pig, and water drinking reflection frequency was measured in the same way as in Experiment 1.

[1] = test system: guinea pig dysphagia model induced by repeated administrations of haloperidol; test: Swallowing reflex (water drinking frequency) in dysphagia model induced by repeated administrations of haloperidol; type: in vivo; conditions: for water drinking frequency (dysphagia improving effect): oral (intragastric)
Hartley guinea pigs = test: Swallowing reflex (water drinking frequency) after repeated administrations of haloperidol; type: in vivo, guinea pig; conditions: haloperidol 1 mg/kg s.c. twice per day for 7 days, compared to physiological saline group
Protocol: as §1
The measurements were repeated totally 4 times at intervals of 1 min. […] Based on the result, the guinea pig was used as a dysphagia model induced by repeated administrations of haloperidol in the following experiments for evaluation of drug efficacy.

[2] = test system: blood pressure increase by intravenous administration of angiotensin I in a normal rat; test: Blood pressure increase induced by intravenous angiotensin I; conditions: oral, angiotensin I 300 ng/kg i.v. after 1 hour, SD male rats
Protocol: The respective dose of a captopril, or lisinopril aqueous solution was administered orally and the blood pressures were measured after 1 hour. Thereafter, angiotensin I was administered intravenously (300 ng/kg) to induce blood pressure increase and a change in the mean blood pressure was measured.

[3] = test system: guinea pig dysphagia model induced by repeated administrations of haloperidol; test: Swallowing reflex (water drinking frequency) in dysphagia model induced by repeated administrations of haloperidol; type: in vivo; conditions: local spray to pharyngeal mucosa, 100 μL of 50 μM aqueous solution, 2 hours after administration

CN(Cc1ccccc1)C(=O)[C@H](Cc1ccc2ccccc2c1)NC(=O)[C@@H]1C[C@@H](O)CN1C(=O)c1cn(C)c2ccccc12 [FK888]
swallowing reflex (water drinking reflection frequency) (normal guinea pig; FK888 10 μM, 50 μL/guinea pig, local spray to pharyngeal site): decrease in swallowing reflex | lower limit not influencing swallowing reflex ([1]; 100 μL local spray to pharyngeal mucosa): 10 nM | increase in water drinking frequency by lisinopril (50 nM, 100 μL) ([1]; FK888 10 nM, 100 μL, local spray 15 min after lisinopril administration): almost completely suppressed

C[C@H](CS)C(=O)N1CCC[C@H]1C(=O)O [captopril]
decrease in swallowing reflex by FK888 administration (normal guinea pig; captopril aqueous solution sprayed to pharyngeal site 30 min before FK888): suppressed | water drinking frequency ([1]; 100 μL of 50 μM aqueous solution sprayed to pharyngeal mucosa, 30 min after spray): significant increase; also recorded: exhibited an improving effect on dysphagia | water drinking frequency ([1]; 100 μL of 50 mM aqueous solution sprayed to pharyngeal mucosa, 30 min after spray): significant increase; also recorded: exhibited an improving effect on dysphagia | water drinking frequency (dysphagia improving effect) ([1]; same dose as 100 μL of 50 μM aqueous solution, 30 min after administration): did not exert an influence | water drinking frequency (dysphagia improving effect) ([1]; same dose as 100 μL of 50 mM aqueous solution, 30 min after administration): did not exert an influence

O=C(CCCN1CCC(O)(c2ccc(Cl)cc2)CC1)c1ccc(F)cc1 [haloperidol]
water drinking frequency (Hartley guinea pigs): significantly decreased

NCCCC[C@H](N[C@@H](CCc1ccccc1)C(=O)O)C(=O)N1CCC[C@H]1C(=O)O [lisinopril]
vasopressor reaction by administration of angiotensin I (change in mean blood pressure) ([2]; 100 μL of 5 μM aqueous solution): had no influence | vasopressor reaction by administration of angiotensin I (change in mean blood pressure) ([2]; 100 μL of 5 mM aqueous solution): suppressed a vasopressor reaction | water drinking frequency (dysphagia improving effect) [3]: exhibited an improving effect on dysphagia | dose giving significant increase in water drinking frequency ([1]; 100 μL aqueous solution sprayed to pharyngeal mucosa): ≥ 50 nM | water drinking frequency ([1]; 100 μL of 0.5 nM to 500 μM aqueous solution (pH 7.0) sprayed to pharyngeal mucosa): dose-dependent increase | water drinking frequency ([1]; 100 μL of 50 nM aqueous solution sprayed to pharyngeal mucosa, 30 min after administration): increase in water drinking frequency | water drinking frequency (dysphagia improving effect) ([1]; same dose as the local administration (100 μL of 50 mM), 2 hours after administration): exerted no influence; also recorded: no dysphagia improving effect was observed
